Measured values from PubChem BioAssay AID1919001 (Molecular Pharmacology Branch, DTP, NCI, 2023).
“And” between values parts separate entries of the source, which are not always exact repeats. Equal values may be shown once.

Test system: 699152-130-R-J1-PDC complex spheroid growth
Experiment: Anticancer human tumor 699152-130-R-J1-PDC patient-derived pancreatic carcinoma cell line growth inhibition [AhR]
Conditions: for viability, T/C: stronger effect = lower value
Text: Multicellular complex tumor spheroid response to aryl hydrocarbon receptor antagonists in combination with a variety of drugs and investigational agents in selected tumor cell lines
The current study was undertaken to assess response to aryl hydrocarbon receptor antagonists in combination with standard-of-care drugs and investigational agents in solid tumor complex spheroid models. Complex spheroids include a stromal component modeled by human endothelial cells (HUVEC) and fibroblasts modeled by human mesenchymal stem cells (MSCs). The concentration ranges selected for each drug and investigational agent were based upon clinically achievable concentrations if the clinical Cmax of the agent was known.
Compounds. The drugs and investigational agents: BAY 2416964 (NSC825713), GNF351 (NSC835774), CH-223191 (NSC835775), CPI-455 (NSC825282), aza-TdCyd (NSC777586), decitabine (NSC127716), belinostat (NSC758774), entinostat (NSC756642), pevonedistat (NSC761192), tazemetostat (NSC777109), talazoparib (NSC765396), olaparib (NSC753686), selinexor (NSC780203), nedisertib (M3814, NSC802822), bortezomib (NSC756655), venetoclax (NSC766270), doxorubicin (NSC123127), elimusertib (BAY189344, NSC800525), ceralasertib (AZD6738, NSC777638), TAK-243 (NSC785004), alisertib (NSC759677), etoposide (NSC141540), topotecan (NSC609699), eribulin (NSC707389), gemcitabine (NSC613327), carboplatin (NSC241240), cisplatin (NSC119875), and SN-38 (NSC673596) were obtained from the National Cancer Institute (NCI) Developmental Therapeutics Program Chemical Repository (32). The FDA-approved anticancer drug set is available from the Developmental Therapeutics Program at https://dtp.cancer.gov/organization/dscb/obtaining/available plates.htm. […] The stock solutions were prepared in dimethyl sulfoxide (DMSO, Sigma-Aldrich, St. Louis, MO, cat. D2650), except for the platinum compounds which were prepared in saline (Quality Biological, Gaithersburg, MD, cat. 114-055-101), at 800-fold the tested concentration and stored at -70 degrees C prior to their use. All drugs and investigational agents were tested over a range starting from a high concentration at or near the clinical Cmax and decreasing in half-log increments. If the clinical Cmax for an agent had not been determined, the highest concentration tested was 10 microM (Table 1).
Cell Culture. All cells were maintained in an incubator at 37 degrees C and 5% CO2 with 95% humidity. The PDC lines were cultured according to standard operating procedures established by the NCI PDMR (https://pdmr.cancer.gov). Briefly, all PDCs were thawed and cultured in Matrigel-coated flasks prepared with a working solution of 1X Ham's F-12 nutrient mix, without supplementation (Invitrogen, Waltham, MA, cat. 11765054), 100 U/mL penicillin-streptomycin (Invitrogen, cat. 15140122), and 2.5% Matrigel (Corning Inc., Corning, NY, cat. 354248) for the first three passages. All PDCs were cultured in complete DMEM/F-12 media containing advanced DMEM/F-12 (Invitrogen, cat. 12634028), 4.9% defined fetal bovine serum, heat inactivated (HyClone Laboratories Inc., Logan, UT, cat. SH30070.03HI), 389 ng/mL hydrocortisone (Sigma-Aldrich, cat. H4001), 9.7 ng/mL human EGF recombinant protein (Invitrogen, cat. PHG0313), 23.4 microg/mL adenine (Sigma-Aldrich, cat. A2786), 97.3 U/mL penicillin-streptomycin (Invitrogen, cat. 15140122), 1.9 mM L-glutamine (Invitrogen, cat. 25030081), and 9.7 microM Y-27632 dihydrochloride (Tocris Bioscience, Bristol, United Kingdom, cat. 1254). The PDCs were cultured in complete DMEM/F12 media without 10 microM Y-27632 dihydrochloride for at least two passages prior to the screen. The established cell lines NCI-H1341 and […] were cultured in DMEM/F-12, HEPES (Invitrogen, cat. 11330032), 5% defined fetal bovine serum (HyClone Laboratories Inc., cat. SH30070.03), ITS premix universal culture supplement [insulin (5 microg/mL), transferrin (5 microg/mL), and selenious acid (5 ng/mL)] […]
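Note: compound exposure lasted 7 days after spheroids had grown for 3 days.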

Question: What does the source list for `CCN(c1cc(-c2ccc(CN3CCOCC3)cc2)cc(C(=O)NCc2c(C)cc(C)[nH]c2=O)c1C)C1CCOCC1`?
Answer: viability, T/C (compound 0.00949 µM): 101% and 104% and 103%; viability, T/C (compound 0.03 µM): 95.7% and 110% and 98.5%; viability, T/C (compound 0.0949 µM): 111% and 87.2% and 115%; viability, T/C (compound 0.3 µM): 93.7% and 115% and 95%; viability, T/C (compound 0.949 µM): 107% and 114% and 113%; viability, T/C (compound 3 µM): 105% and 111% and 113%; IC50 (curve of compound): > 3 µM

Question: How did the IC50 (curve of first compound, second compound 0.1 µM) turn out when `Nc1ccn(C2OC(CO)C(O)C2(F)F)c(=O)n1` (configuration not stated) + CC(CO)NC(=O)c1cc(-c2ccc(Cl)cc2)nn(-c2cnn(C)c2)c1=O was run?
Answer: 5.75 µM

Question: And the IC50 (curve of first compound, second compound 0.316 µM)?
Answer: 10 µM

Question: And the IC50 (curve of first compound, second compound 1 µM)?
Answer: 7.01 µM

Question: What about the IC50 (curve of first compound, second compound 3.16 µM) of the same compound?
Answer: 2.91 µM

Question: And the IC50 (curve of first compound, second compound 10 µM)?
Answer: 9.15 µM

Question: What about the viability, T/C (second compound 0.1 µM, first compound 0.0316 µM) of the same compound?
Answer: 67.1%

Question: And the viability, T/C (second compound 0.1 µM, first compound 0.1 µM)?
Answer: 73.4%

Question: What about the viability, T/C (second compound 0.1 µM, first compound 0.316 µM) of the same compound?
Answer: 62%

Question: What about the viability, T/C (second compound 0.1 µM, first compound 1 µM) of the same compound?
Answer: 56.4%

Question: And the viability, T/C (second compound 0.1 µM, first compound 3.16 µM)?
Answer: 52.6%

Question: And the viability, T/C (second compound 0.1 µM, first compound 10 µM)?
Answer: 48.1%

Question: And the viability, T/C (second compound 0.316 µM, first compound 0.0316 µM)?
Answer: 67%

Question: What about the viability, T/C (second compound 0.316 µM, first compound 0.1 µM) of the same compound?
Answer: 73.1%

Question: And the viability, T/C (second compound 0.316 µM, first compound 0.316 µM)?
Answer: 50.8%

Question: What about the viability, T/C (second compound 0.316 µM, first compound 1 µM) of the same compound?
Answer: 53.6%

Question: What about the viability, T/C (second compound 0.316 µM, first compound 3.16 µM) of the same compound?
Answer: 50.6%

Question: What about the viability, T/C (second compound 0.316 µM, first compound 10 µM) of the same compound?
Answer: 47%

Question: What about the viability, T/C (second compound 1 µM, first compound 0.0316 µM) of the same compound?
Answer: 68.8%

Question: And the viability, T/C (second compound 1 µM, first compound 0.1 µM)?
Answer: 69.5%

Question: And the viability, T/C (second compound 1 µM, first compound 0.316 µM)?
Answer: 63.5%

Question: And the viability, T/C (second compound 1 µM, first compound 1 µM)?
Answer: 61.5%

Question: What about the viability, T/C (second compound 1 µM, first compound 3.16 µM) of the same compound?
Answer: 56.7%

Question: What about the viability, T/C (second compound 1 µM, first compound 10 µM) of the same compound?
Answer: 47.1%

Question: What about the viability, T/C (second compound 3.16 µM, first compound 0.0316 µM) of the same compound?
Answer: 66.1%

Question: And the viability, T/C (second compound 3.16 µM, first compound 0.1 µM)?
Answer: 67.4%

Question: And the viability, T/C (second compound 3.16 µM, first compound 0.316 µM)?
Answer: 55.8%

Question: What about the viability, T/C (second compound 3.16 µM, first compound 1 µM) of the same compound?
Answer: 54.3%

Question: What about the viability, T/C (second compound 3.16 µM, first compound 3.16 µM) of the same compound?
Answer: 49.2%

Question: And the viability, T/C (second compound 3.16 µM, first compound 10 µM)?
Answer: 46.3%

Question: What about the viability, T/C (second compound 10 µM, first compound 0.0316 µM) of the same compound?
Answer: 68.9%

Question: What about the viability, T/C (second compound 10 µM, first compound 0.1 µM) of the same compound?
Answer: 70.7%

Question: What about the viability, T/C (second compound 10 µM, first compound 0.316 µM) of the same compound?
Answer: 62%

Question: And the viability, T/C (second compound 10 µM, first compound 1 µM)?
Answer: 60.9%

Question: And the viability, T/C (second compound 10 µM, first compound 3.16 µM)?
Answer: 53.9%

Question: What about the viability, T/C (second compound 10 µM, first compound 10 µM) of the same compound?
Answer: 50%
